# Experimental data as given in patent US20260256755A1, “COMBINATIONS FOR TREATMENT OF PARKINSON'S DISEASE AND OTHER PRIMARY AND SECONDARY PARKINSONIAN DISORDERS” (Kenai Therapeutics, Inc., priority 2023, published 2026).
# Tests used:
# [1] = system: microglia; settings: cited from earlier work
# [2] = system: cerebral cortex; assay: Example 5: cortical lesion study, neuroprotection and inflammation; type: in vivo, long evans hooded rats; settings: injected with DA neural cells
# From the text: Animals, Surgery, and histology: lesion studies will be conducted on 15 long evans hooded rats weighing 225-275 g. Twelve of these rats will be deeply anesthetized 10 with ketamine/xylazine and placed in a sterotaxic holder. A 4×2 mm (rostrocaudal×mediolateral) skull opening will be made on the right side starting just behind the coronal suture and centered at a mediolateral position of +2.5 mm relative to bregma. A dissecting knife will be penetrated through the dura and cortex in the center of this skull opening to a depth of 1 mm. The skull defect will be filled with bone wax, the skin sutured closed, and the animal placed on a heating pad. Twenty minutes later, 0.4 cc of solution containing 100 μg of 20 peptide (^~0.4 mg/kg, 6 rats) or DMEM vehicle (6 rats) will be injected under the skin of the shoulder near the midline. The rats will be perfused 4 days later and their brains processed for histology and immunohistochemistry as in previous studies. Three rats will be sacrificed without surgery or treatment. […] The density of ED-1+ ameboid microglia in the perilesion parencyma wound will be calculated after experimentally blinded counting of 4 fields (dorsal and ventral margins of the wound) in 2 sections through the lesion.
# [3] = system: DA neural cells; assay: Example 2: stress test, medium change followed by serum deprivation; type: cell-based; settings: concentrations of 0.1 and 0.01 μM
# From the text: DA neural cell survival will be measured by either counting surviving attached DA neural cells or by colorimetric determination after applying an electrocoupling reagent that responds to chemical reactions in normal cellular respiration.
# [4] = system: PGC-1a; assay: upregulation of PGC-1a, mode of action relevant to dopaminergic cells; type: cell-based; settings: for ability to upregulate PGC-1a: target relevant to dopaminergic cells and Parkinson's disease
smiles,measurement,setting,value
FC(F)(F)c1ccc(CNc2ccc(Cc3c[nH]c4ncc(Cl)cc34)cn2)cn1 [Pexidartinib],depletion of the microglia population,[1]; healthy brain,fast depletion of the microglia population
same,survival of microglia,[1]; in vivo,inhibit the survival of microglia
same,accumulation of inflammatory cells in the parenchyma,[2],inhibited
same,disruption of the cerebral cortex,[2],inhibited
same,rescue of DA neural cells,[3],rescue DA neural cells
CC(C)(Oc1ccc(CCNC(=O)c2ccc(Cl)cc2)cc1)C(=O)O [benzafibrate],ability to upregulate PGC-1a,[4],unable to upregulate PGC-1a
CCOC(=O)C(C)(C)Oc1ccc(Cl)cc1 [clorofibrate],ability to upregulate PGC-1a,[4],unable to upregulate PGC-1a
CC(C)OC(=O)C(C)(C)Oc1ccc(C(=O)c2ccc(Cl)cc2)cc1 [fenofibrate],activity (active or not),[4]; mode of action relevant to dopaminergic cells and Parkinson's disease,active
